Measured values from ChEMBL document CHEMBL3044564, “Synthesis and antihypertensive activity evaluation in spontaneously hypertensive rats of lacidipine analogues” (2012).

What was measured:
Rattus norvegicus [1] = test: Antihypertensive activity in spontaneously hypertensive Rattus norvegicus (rat) assessed as reduced systolic blood pressure at 1 mg/kg intragastrically administered; format: functional, Artery; conditions: route intragastric
Rattus norvegicus [2] = test: Antihypertensive activity in spontaneously hypertensive Rattus norvegicus (rat) assessed as reduced systolic blood pressure at 2 mg/kg intragastrically administered measured at 20 hr post compound treatment (reference value: -2 +/- 4 mmHg); format: functional, Artery; conditions: route intragastric
Rattus norvegicus [3] = test: Antihypertensive activity in spontaneously hypertensive Rattus norvegicus (rat) assessed as reduced systolic blood pressure at 2 mg/kg intragastrically administered measured at 8 hr post compound treatment (reference value: -3 +/- 3 mmHg); format: functional, Artery; conditions: route intragastric
Rattus norvegicus [4] = test: Antihypertensive activity in spontaneously hypertensive Rattus norvegicus (rat) assessed as reduced systolic blood pressure at 2 mg/kg intragastrically administered measured at 6 hr post compound treatment (reference value: -2 +/- 3 mmHg); format: functional, Artery; conditions: route intragastric
Rattus norvegicus [5] = test: Antihypertensive activity in spontaneously hypertensive Rattus norvegicus (rat) assessed as reduced systolic blood pressure at 2 mg/kg intragastrically administered measured at 4 hr post compound treatment (reference value: -1 +/- 3 mmHg); format: functional, Artery; conditions: route intragastric
Rattus norvegicus [6] = test: Antihypertensive activity in spontaneously hypertensive Rattus norvegicus (rat) assessed as reduced systolic blood pressure at 2 mg/kg intragastrically administered measured at 2 hr post compound treatment (reference value: -1 +/- 2 mmHg); format: functional, Artery; conditions: route intragastric
Rattus norvegicus [7] = test: Antihypertensive activity in spontaneously hypertensive Rattus norvegicus (rat) assessed as reduced systolic blood pressure at 2 mg/kg intragastrically administered measured at 1 hr post compound treatment (reference value: 1 +/- 3 mmHg); format: functional, Artery; conditions: route intragastric
Rattus norvegicus [8] = test: Antihypertensive activity in spontaneously hypertensive Rattus norvegicus (rat) assessed as reduction in systolic blood pressure compound intragastrically administered measured at 1 to 20 hr post compound treatment; format: functional, organism-based; conditions: Artery
Rattus norvegicus [9] = test: Antihypertensive activity in spontaneously hypertensive Rattus norvegicus (rat) assessed as reduced systolic blood pressure at 1 mg/kg intragastrically administered measured at 6 hr post compound treatment (reference value: -2 +/- 3 mmHg); format: functional, Artery; conditions: route intragastric
Rattus norvegicus [10] = test: Antihypertensive activity in spontaneously hypertensive Rattus norvegicus (rat) assessed as reduced systolic blood pressure at 1 mg/kg intragastrically administered measured at 4 hr post compound treatment (reference value: -1 +/- 3 mmHg); format: functional, Artery; conditions: route intragastric
Rattus norvegicus [11] = test: Antihypertensive activity in spontaneously hypertensive Rattus norvegicus (rat) assessed as reduced systolic blood pressure at 1 mg/kg intragastrically administered measured at 2 hr post compound treatment (reference value: -1 +/- 2 mmHg); format: functional, Artery; conditions: route intragastric
Rattus norvegicus [12] = test: Antihypertensive activity in spontaneously hypertensive Rattus norvegicus (rat) assessed as reduced systolic blood pressure at 1 mg/kg intragastrically administered measured at 1 hr post compound treatment (reference value: 1 +/- 3 mmHg); format: functional, Artery; conditions: route intragastric
Rattus norvegicus [13] = test: Antihypertensive activity in spontaneously hypertensive Rattus norvegicus (rat) assessed as reduced systolic blood pressure at 0.5 mg/kg intragastrically administered measured at 1 hr post compound treatment (reference value: 1 +/- 3 mmHg); format: functional, Artery; conditions: route intragastric

CCOC(=O)C1=C(C)NC(C)=C(C(=O)OCC)C1c1ccccc1/C=C/C(=O)NC(C)(C)C
Activity (Rattus norvegicus [1]): 44 mmHg

CCOC(=O)C1=C(C)NC(C)=C(C(=O)OCC)C1c1ccccc1/C=C/C(=O)OC(C)(C)C [LACIDIPINE]
Activity (Rattus norvegicus [1]): 50 mmHg

CCOC(=O)C1=C(C)NC(C)=C(C(=O)OCC)C1c1ccccc1/C=C/C(=O)NCC(C)C
Activity (Rattus norvegicus [1]): 15 mmHg

CCCCN(C)C(=O)/C=C/c1ccccc1C1C(C(=O)OCC)=C(C)NC(C)=C1C(=O)OCC
Activity (Rattus norvegicus [1]): 27 mmHg

CCOC(=O)C1=C(C)NC(C)=C(C(=O)OCC)C1c1ccccc1/C=C/C(=O)N(C)C(C)(C)C
Activity (Rattus norvegicus [2]): 25 mmHg | Activity (Rattus norvegicus [3]): 43 mmHg | Activity (Rattus norvegicus [4]): 45 mmHg | Activity (Rattus norvegicus [5]): 47 mmHg | Activity (Rattus norvegicus [6]): 53 mmHg | Activity (Rattus norvegicus [7]): 44 mmHg | Activity (Rattus norvegicus [8]): Dose-dependent effect | Activity (Rattus norvegicus [9]): 3 mmHg | Activity (Rattus norvegicus [10]): 20 mmHg | Activity (Rattus norvegicus [11]): 34 mmHg | Activity (Rattus norvegicus [12]): 46 mmHg | Activity (Rattus norvegicus [13]): 11 mmHg | Activity (Rattus norvegicus [1]): 46 mmHg

CCOC(=O)C1=C(C)NC(C)=C(C(=O)OCC)C1c1ccccc1/C=C/C(=O)N1CCCCC1
Activity (Rattus norvegicus [1]): 22 mmHg

CCOC(=O)C1=C(C)NC(C)=C(C(=O)OCC)C1c1ccccc1/C=C/C(=O)N(CC)CC
Activity (Rattus norvegicus [1]): 33 mmHg
